Results published in ChEMBL document CHEMBL1201861, “Genomics of Drug Sensitity in Cancer screening data, Wellcome Trust Sanger Institute”.

Experiments:
Assay in all cases: cells
Conditions in all cases: Homo sapiens
[1] = tested on: NCI-H747; format: functional, cell-based;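 further: growth inhibition of human NCI-H747 cells, read out by a cell viability assay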
Description: SANGER: Inhibition of human NCI-H747 cell growth in a cell viability assay.

[2] = tested on: C2BBe1; format: functional, cell-based;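 further: growth inhibition of C2BBe1 cells, read out through a viability assay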
Description: SANGER: Inhibition of human C2BBe1 cell growth in a cell viability assay.

[3] = tested on: J-RT3-T3-5; format: functional, cell-based;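 further: cell viability assay measuring growth inhibition of human J-RT3-T3-5 cells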
Description: SANGER: Inhibition of human J-RT3-T3-5 cell growth in a cell viability assay.

[4] = tested on: ATN-1; format: functional, cell-based;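 further: growth inhibition of human ATN-1 cells, read out with a cell viability assay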
Description: SANGER: Inhibition of human ATN-1 cell growth in a cell viability assay.

[5] = tested on: SF-126; format: functional, cell-based;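 further: growth inhibition of human SF126 cells, read out with a cell viability assay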
Description: SANGER: Inhibition of human SF126 cell growth in a cell viability assay.

[6] = tested on: SK-MEL-2; format: functional, cell-based;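 further: growth inhibition of human SK-MEL-2 cells measured with a cell viability assay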
Description: SANGER: Inhibition of human SK-MEL-2 cell growth in a cell viability assay.

[7] = tested on: LNCaP-Clone-FGC; format: functional, cell-based
Description: SANGER: Inhibition of human LNCaP-Clone-FGC cell growth in a cell viability assay.

[8] = tested on: EW-3; format: functional, cell-based;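 further: cell viability assay read-out, IC50 reflects inhibition of growth of the EW-3 cells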
Description: SANGER: Inhibition of human EW-3 cell growth in a cell viability assay.

[9] = tested on: QIMR-WIL; format: functional, cell-based;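 further: growth inhibition of QIMR-WIL cells, read out with a cell viability assay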
Description: SANGER: Inhibition of human QIMR-WIL cell growth in a cell viability assay.

[10] = tested on: RH-1; format: functional, cell-based;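 further: growth inhibition of human RH-1 cells, read out with a cell viability assay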
Description: SANGER: Inhibition of human RH-1 cell growth in a cell viability assay.

[11] = tested on: NEC8; format: functional, cell-based;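 further: growth inhibition of human NEC8 cells, read out by a cell viability assay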
Description: SANGER: Inhibition of human NEC8 cell growth in a cell viability assay.

[12] = tested on: A704; format: functional, cell-based;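 further: growth inhibition of human A704 cells, read out with a cell viability assay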
Description: SANGER: Inhibition of human A704 cell growth in a cell viability assay.

[13] = tested on: HD-MY-Z; format: functional, cell-based;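 further: growth inhibition of HD-MY-Z cells, read out with a cell viability assay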
Description: SANGER: Inhibition of human HD-MY-Z cell growth in a cell viability assay.

[14] = tested on: KU812 cell line; format: functional, cell-based;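 further: growth inhibition of KU812 cells, read out with a cell viability assay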
Description: SANGER: Inhibition of human KU812 cell growth in a cell viability assay.

[15] = tested on: EKVX; format: functional, cell-based;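 further: growth inhibition of human EKVX cells, read out with a cell viability assay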
Description: SANGER: Inhibition of human EKVX cell growth in a cell viability assay.

[16] = tested on: KNS-81-FD; format: functional, cell-based;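 further: growth inhibition of KNS-81-FD cells, read out with a cell viability assay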
Description: SANGER: Inhibition of human KNS-81-FD cell growth in a cell viability assay.

[17] = tested on: TE-5; format: functional, cell-based;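 further: inhibition of cell growth, read out by a cell viability assay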
Description: SANGER: Inhibition of human TE-5 cell growth in a cell viability assay.

[18] = tested on: COLO-800; format: functional, cell-based;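 further: growth inhibition of COLO-800 cells, read out with a cell viability assay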
Description: SANGER: Inhibition of human COLO-800 cell growth in a cell viability assay.

[19] = tested on: no-11; format: functional, cell-based;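 further: growth inhibition of human NO-11 cells, read out with a cell viability assay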
Description: SANGER: Inhibition of human no-11 cell growth in a cell viability assay.

[20] = tested on: HDLM-2; format: functional, cell-based;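 further: cell viability assay measuring suppression of HDLM-2 proliferation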
Description: SANGER: Inhibition of human HDLM-2 cell growth in a cell viability assay.

[21] = tested on: TE-12; format: functional, cell-based;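 further: growth inhibition of TE-12 cells, read out by a cell viability assay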
Description: SANGER: Inhibition of human TE-12 cell growth in a cell viability assay.

[22] = tested on: SW684; format: functional, cell-based;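 further: growth inhibition of human SW684 cells, measured by a cell viability assay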
Description: SANGER: Inhibition of human SW684 cell growth in a cell viability assay.

[23] = tested on: SW872; format: functional, cell-based;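 further: growth inhibition of SW872 cells, read out by a viability assay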
Description: SANGER: Inhibition of human SW872 cell growth in a cell viability assay.

[24] = tested on: AM-38; format: functional, cell-based;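 further: growth inhibition of AM-38 cells of human origin, read out by a cell viability assay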
Description: SANGER: Inhibition of human AM-38 cell growth in a cell viability assay.

[25] = tested on: NB10; format: functional, cell-based;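 further: growth inhibition of NB10 cells, read out by a cell viability assay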
Description: SANGER: Inhibition of human NB10 cell growth in a cell viability assay.

[26] = tested on: TE-1; format: functional, cell-based;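 further: growth inhibition of the human TE-1 cell line, read out with a cell viability assay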
Description: SANGER: Inhibition of human TE-1 cell growth in a cell viability assay.

[27] = tested on: D-263MG; format: functional, cell-based
Description: SANGER: Inhibition of human D-263MG cell growth in a cell viability assay.

[28] = tested on: LAMA-84; format: functional, cell-based;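 further: growth inhibition of LAMA-84 cells, read out with a cell viability assay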
Description: SANGER: Inhibition of human LAMA-84 cell growth in a cell viability assay.

[29] = tested on: GI-1; format: functional, cell-based;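 further: growth inhibition of human GI-1 cells, measured with a cell viability readout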
Description: SANGER: Inhibition of human GI-1 cell growth in a cell viability assay.

[30] = tested on: KM-H2; format: functional, cell-based;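 further: growth inhibition of KM-H2 cells, read out by a cell viability assay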
Description: SANGER: Inhibition of human KM-H2 cell growth in a cell viability assay.

[31] = tested on: SHP77; format: functional, cell-based, SHP-77;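 further: growth inhibition of human SHP-77 cells measured by a cell viability assay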
Description: SANGER: Inhibition of human SHP-77 cell growth in a cell viability assay.

[32] = tested on: NOS-1; format: functional, cell-based;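 further: growth inhibition of the human NOS-1 cell line, read out with a cell viability assay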
Description: SANGER: Inhibition of human NOS-1 cell growth in a cell viability assay.

[33] = tested on: NCI-H69; format: functional, cell-based;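 further: growth inhibition of the cell line, read out with a cell viability assay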
Description: SANGER: Inhibition of human NCI-H69 cell growth in a cell viability assay.

[34] = tested on: IST-MEL1; format: functional, cell-based;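 further: growth inhibition of the cell line, read out with a cell viability assay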
Description: SANGER: Inhibition of human IST-MEL1 cell growth in a cell viability assay.

[35] = tested on: COLO-684; format: functional, cell-based
Description: SANGER: Inhibition of human COLO-684 cell growth in a cell viability assay.

[36] = tested on: HAL-01; format: functional, cell-based;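 further: growth inhibition of human HAL-01 cells, read out with a cell viability assay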
Description: SANGER: Inhibition of human HAL-01 cell growth in a cell viability assay.

[37] = tested on: GAK; format: functional, cell-based;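 further: cell growth inhibition read out by a cell viability assay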
Description: SANGER: Inhibition of human GAK cell growth in a cell viability assay.

[38] = tested on: COLO-824; format: functional, cell-based
Description: SANGER: Inhibition of human COLO-824 cell growth in a cell viability assay.

[39] = tested on: SW 954; format: functional, cell-based;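 further: growth inhibition of SW954 human cancer cells, read out as cell viability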
Description: SANGER: Inhibition of human SW954 cell growth in a cell viability assay.

[40] = tested on: SH-4; format: functional, cell-based;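 further: growth inhibition of SH-4 cells, read out with a cell viability assay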
Description: SANGER: Inhibition of human SH-4 cell growth in a cell viability assay.

[41] = tested on: U-87 MG; format: functional, cell-based, U-87MG ATCC;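 further: growth inhibition of the cells measured with a viability assay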
Description: SANGER: Inhibition of human U-87-MG cell growth in a cell viability assay.

[42] = tested on: COR-L88; format: functional, cell-based;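 further: growth inhibition of COR-L88 cells, read out with a cell viability assay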
Description: SANGER: Inhibition of human COR-L88 cell growth in a cell viability assay.

[43] = tested on: Lu-65; format: functional, cell-based;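 further: growth inhibition of Lu-65 cancer cells, read out by a cell viability assay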
Description: SANGER: Inhibition of human LU-65 cell growth in a cell viability assay.

[44] = tested on: MPP-89; format: functional, cell-based;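 further: growth inhibition of human MPP-89 cells, read out with a cell viability assay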
Description: SANGER: Inhibition of human MPP-89 cell growth in a cell viability assay.

[45] = tested on: EW-13; format: functional, cell-based;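 further: growth inhibition of EW-13 cells, read out with a cell viability assay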
Description: SANGER: Inhibition of human EW-13 cell growth in a cell viability assay.

[46] = tested on: HEL; format: functional, cell-based;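 further: growth inhibition of HEL cells, read out with a cell viability assay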
Description: SANGER: Inhibition of human HEL cell growth in a cell viability assay.

[47] = tested on: COLO-668; format: functional, cell-based
Description: SANGER: Inhibition of human COLO-668 cell growth in a cell viability assay.

[48] = tested on: EW-11; format: functional, cell-based;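 further: growth inhibition of human EW-11 cells, measured with a cell viability assay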
Description: SANGER: Inhibition of human EW-11 cell growth in a cell viability assay.

[49] = tested on: KE-37; format: functional, cell-based;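 further: growth inhibition of KE-37 cells, read out with a cell viability assay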
Description: SANGER: Inhibition of human KE-37 cell growth in a cell viability assay.

[50] = tested on: SBC-1; format: functional, cell-based;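 further: cell viability assay measuring growth inhibition of the SBC-1 cell line, IC50 being the concentration that halves growth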
Description: SANGER: Inhibition of human SBC-1 cell growth in a cell viability assay.

[51] = tested on: HCC2218; format: functional, cell-based;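 further: cell viability assay read-out, with IC50 given as the concentration that inhibits growth of the cell line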
Description: SANGER: Inhibition of human HCC2218 cell growth in a cell viability assay.

[52] = tested on: no-10; format: functional, cell-based;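 further: growth inhibition of no-10 cells, read out with a cell viability assay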
Description: SANGER: Inhibition of human no-10 cell growth in a cell viability assay.

[53] = tested on: ES8; format: functional, cell-based
Description: SANGER: Inhibition of human ES8 cell growth in a cell viability assay.

[54] = tested on: NCI-H1770; format: functional, cell-based
Description: SANGER: Inhibition of human NCI-H1770 cell growth in a cell viability assay.

[55] = tested on: SNU1; format: functional, cell-based
Description: SANGER: Inhibition of human NCI-SNU-1 cell growth in a cell viability assay.

[56] = tested on: DOHH-2; format: functional, cell-based
Description: SANGER: Inhibition of human DOHH-2 cell growth in a cell viability assay.

[57] = tested on: ETK-1; format: functional, cell-based
Description: SANGER: Inhibition of human ETK-1 cell growth in a cell viability assay.

[58] = tested on: NCI-H23; format: functional, cell-based
Description: SANGER: Inhibition of human NCI-H23 cell growth in a cell viability assay.

[59] = tested on: MHH-NB-11; format: functional, cell-based
Description: SANGER: Inhibition of human MHH-NB-11 cell growth in a cell viability assay.

[60] = tested on: EW-16; format: functional, cell-based
Description: SANGER: Inhibition of human EW-16 cell growth in a cell viability assay.

[61] = tested on: K5; format: functional, cell-based
Description: SANGER: Inhibition of human K5 cell growth in a cell viability assay.

[62] = tested on: SCH; format: functional, cell-based
Description: SANGER: Inhibition of human SCH cell growth in a cell viability assay.

[63] = tested on: A498; format: functional, cell-based
Description: SANGER: Inhibition of human A498 cell growth in a cell viability assay.

[64] = tested on: TGBC1TKB; format: functional, cell-based
Description: SANGER: Inhibition of human TGBC1TKB cell growth in a cell viability assay.

[65] = tested on: ES6; format: functional, cell-based
Description: SANGER: Inhibition of human ES6 cell growth in a cell viability assay.

[66] = tested on: IST-MES1; format: functional, cell-based
Description: SANGER: Inhibition of human IST-MES1 cell growth in a cell viability assay.

## Fc1cc(-c2cc[nH]/c(=N/c3ccc(-n4cnc(N5CCOCC5)n4)cc3)n2)cc(N2CCOCC2)c1
[1]
  IC50: 1050 nM
[2]
  IC50: 764 nM
[3]
  IC50: 689 nM
[4]
  IC50: 505 nM
[5]
  IC50: 3160 nM
[6]
  IC50: 631 nM
[7]
  IC50: 903 nM
[8]
  IC50: 4230 nM
[9]
  IC50: 343 nM
[10]
  IC50: 919 nM
[11]
  IC50: 1010 nM
[12]
  IC50: 441 nM
[13]
  IC50: 1140 nM
[14]
  IC50: 338 nM
[15]
  IC50: 2840 nM
[16]
  IC50: 4950 nM
[17]
  IC50: 339 nM
[18]
  IC50: 1990 nM
[19]
  IC50: 1350 nM
[20]
  IC50: 721 nM
[21]
  IC50: 1210 nM
[22]
  IC50: 3040 nM
[23]
  IC50: 539 nM
[24]
  IC50: 1110 nM
[25]
  IC50: 1300 nM
[26]
  IC50: > 5120 nM
[27]
  IC50: 725 nM
[28]
  IC50: 2950 nM
[29]
  IC50: 171 nM
[30]
  IC50: 1360 nM
[31]
  IC50: 825 nM
[32]
  IC50: 307 nM
[33]
  IC50: 1180 nM
[34]
  IC50: 894 nM
[35]
  IC50: 543 nM
[36]
  IC50: 704 nM
[37]
  IC50: 790 nM
[38]
  IC50: 637 nM
[39]
  IC50: 473 nM
[40]
  IC50: 410 nM
[41]
  IC50: 2730 nM
[42]
  IC50: 2570 nM
[43]
  IC50: 1660 nM
[44]
  IC50: 3820 nM
[45]
  IC50: 297 nM
[46]
  IC50: 548 nM
[47]
  IC50: 376 nM
[48]
  IC50: 1210 nM
[49]
  IC50: 289 nM
[50]
  IC50: > 5120 nM
[51]
  IC50: 1090 nM
[52]
  IC50: 1840 nM
[53]
  IC50: 135 nM
[54]
  IC50: 805 nM
[55]
  IC50: 458 nM
[56]
  IC50: 715 nM
[57]
  IC50: 1060 nM
[58]
  IC50: > 5120 nM
[59]
  IC50: 936 nM
[60]
  IC50: 451 nM
[61]
  IC50: 830 nM
[62]
  IC50: 3250 nM
[63]
  IC50: 171 nM
[64]
  IC50: 1880 nM
[65]
  IC50: 406 nM
[66]
  IC50: 1970 nM

## CC(=O)c1c(C)c2cnc(Nc3ccc(N4CCNCC4)cn3)nc2n(C2CCCC2)c1=O [PALBOCICLIB]
[1]
  IC50: 2320 nM
[2]
  IC50: > 4000 nM
[3]
  IC50: 936 nM
[4]
  IC50: > 4000 nM
[5]
  IC50: > 4000 nM
[6]
  IC50: > 4000 nM
[7]
  IC50: > 4000 nM
[8]
  IC50: 809 nM
[9]
  IC50: 1130 nM
[10]
  IC50: > 4000 nM
[11]
  IC50: > 4000 nM
[12]
  IC50: > 4000 nM
[13]
  IC50: > 4000 nM
[14]
  IC50: 1890 nM
[15]
  IC50: > 4000 nM
[16]
  IC50: > 4000 nM
[17]
  IC50: > 4000 nM
[18]
  IC50: 898 nM
[19]
  IC50: > 4000 nM
[20]
  IC50: > 4000 nM
[21]
  IC50: > 4000 nM
[22]
  IC50: > 4000 nM
[23]
  IC50: 1980 nM
[24]
  IC50: > 4000 nM
[25]
  IC50: 599 nM
[26]
  IC50: > 4000 nM
[27]
  IC50: 717 nM
[28]
  IC50: 258 nM
[29]
  IC50: > 4000 nM
[30]
  IC50: 696 nM
[31]
  IC50: > 4000 nM
[32]
  IC50: > 4000 nM
[33]
  IC50: > 4000 nM
[34]
  IC50: > 4000 nM
[35]
  IC50: > 4000 nM
[36]
  IC50: 606 nM
[37]
  IC50: > 4000 nM
[38]
  IC50: > 4000 nM
[39]
  IC50: 929 nM
[40]
  IC50: > 4000 nM
[41]
  IC50: > 4000 nM
[42]
  IC50: > 4000 nM
[43]
  IC50: > 4000 nM
[44]
  IC50: > 4000 nM
[45]
  IC50: > 4000 nM
[46]
  IC50: 1290 nM
[47]
  IC50: > 4000 nM
[48]
  IC50: > 4000 nM
[49]
  IC50: 2090 nM
[50]
  IC50: > 4000 nM
[51]
  IC50: 2350 nM
[52]
  IC50: > 4000 nM
[53]
  IC50: 605 nM
[54]
  IC50: 941 nM
[55]
  IC50: 1160 nM
[56]
  IC50: > 4000 nM
[57]
  IC50: 3050 nM
[58]
  IC50: > 4000 nM
[59]
  IC50: 220 nM
[60]
  IC50: 604 nM
[62]
  IC50: > 4000 nM
[63]
  IC50: > 4000 nM
[64]
  IC50: > 4000 nM
[65]
  IC50: > 4000 nM
[66]
  IC50: 3830 nM
